This note sets out measurements from ChEMBL document CHEMBL4196226, “5-HT2C Receptor Agonists for the Treatment of Obesity” (ACS Med Chem Lett, 2018).

Activity calls are given as the source filed them. The rule behind the calls is not given here.

For this experiment, the species on record is Rattus norvegicus. The experiment can be described thus: Antiobesity activity in Sprague-Dawley rat assessed as reduction in cumulative food intake. In kind it is functional, organism-based.

Turning to `FC(F)(F)CCc1ccnc2c1CC[C@@H]1CNCCN21`, the outcome was Active.
